Measurements taken from patent US9481636B2, “N-benzylaniline derivative and uses thereof” (Nanjing Medical University, priority 2011, dated 2016).

Legend:
[1] = test system: NMDAR-mediated pathological NO release; conditions: Nature Medicine 2010, 16, 1439-1443; cited from earlier work
[2] = test system: glutamate-induced neuronal injury; conditions: Nature Medicine 2010, 16, 1439-1443; cited from earlier work
[3] = test system: middle cerebral artery occlusion (MCAO) and reperfusion; conditions: Nature Medicine 2010; cited from earlier work
[4] = test system: learning and memory impairment, behavioral abnormalities; conditions: in vivo; cited from earlier work
[5] = test system: inflammatory pain in mice (thermal radiation stimulus)
Protocol: (§1) Meller method was employed. Skin around the […] planta was disinfect with 75% ethanol, and 10 μl Complete Freund's adjuvant (CFA) was injected subcutaneously in planta of right hind limb. The planta was gently pressed with a dry cotton ball after the injection to avoid liquid spill along the pinhole. Mice would usually return to normal within a few minutes. CFA-induced inflammatory pain is a widely used chronic pain model.
Animals' planta were stimulated with infrared radiator.
CFA was injected in the planta of the mice whose latency baseline of thermal pain paw response was determined to induce inflammatory pain. […] Latencies of paw withdraw response to thermal pain were measured 0.5, 1, 4, 8, 10 and 24 hours after administration.

[6] = test system: acute focal cerebral ischemia/reperfusion injury in rats; test: MCAO focal cerebral ischemia/reperfusion injury: infarct area and neurological defect score; type: in vivo; conditions: 48 h; for cerebral infarct area: MCAO 120 min
Excerpt: Cerebral ischemia injury was induced by middle cerebral artery occlusion (MCAO) reperfusion model. […] The neck skin was incised along median line, and neck muscle tissue was bluntly dissected to expose and carefully isolate the common carotid artery (CCA) on the right side. The concomitant vagus nerve was gently peeled and ligated, and inward and superficial external carotid artery (ECA) was cut off; pterygopalatine artery, outward branch artery near skull base along internal carotid artery (ICA), was isolated and ligated. […] At this point, the blood supply to the middle cerebral arteries (MCA) including carotid artery and ramus communicans before Waldeyer's ring were all blocked. The depth of the inserted line was determined based on the mark. Extravascular part of the line was ligated and fixed to prevent the line from slippage. After rightside cerebral ischemia 120 minutes, the line was carefully unplugged and the broken end was ligated to achieve reperfusion after ischemia. Suturing the skin, and the rats were returned to cage and fed carefully. The body temperature of the animals was maintained constantly at 37±0.5° C. during surgery.
The modified Bederson 5-score method was used for evaluation of neurological defect symptoms. Neurological defect symptoms of rats after cerebral ischemia was evaluated by single-blinded method, i.e., test animals were marked by group by the test designers and testers who graded neurological defect symptoms didn't know the animal grouping, after the grading the testers submitted the grading results with various marks to the designers, and the designers unblinded the grouping to obtain scores for each animal in each test group.
The animals were anesthetized with 10% chloral hydrate 3.5 ml/kg, the brains were taken out after beheading, and olfactory bulb, cerebellum and lower brain stem were removed. Blood on the surface of the brain was washed with normal saline and residual water on the surface was absorbed. The brains were placed at −80° C. for 7 min, and once taken out were sliced at the coronal cross planes vertically to the sight plane with 2 mm intervals between the slices. The brain slices were immersed in a water bath (37° C., 90 min) containing 20 g/L TTC dye freshly prepared with 0.2 mol/L pH 7.4˜7.8 PBS, and normal brain tissues were stained crimson while ischemic brain tissues were pale. After the tissues were washed with normal saline, the brain slices were rapidly aligned in a row from front to back in order, and the surface residual water was absorbed to dry surface, then photographed. Statistics of the pictures were carried on using image analysis software, and ischemic area (white area) and total area on the right side were delineated. The percentage of cerebral infarct area was calculated using the following formula.
Neurological deficit symptoms were evaluated 48 h after the cerebral ischemia, then the animals were sacrificed and the brains were taken out, TTC stained, and infarct areas of the stained brain slices were measured.
The rats were under MCAO for 120 min, and 1 h after reperfusion the rats were injected through tail vein with ZL006-06, ZL006-16, ZL006-28, ZL006-30, ZL006-43, ZL006-82 or an equivalent volume of solvent, wherein the doses of each drug were 1.5 mg/kg, and the volume of injected drugs was 0.1 ml/100 g weight. Neurological deficit symptoms were evaluated 48 h after the cerebral ischemia, then the animals were sacrificed and the brains were taken out, TTC stained, and infarct areas of the stained brain slices were measured.

[7] = test system: neuropathic pain in mice (mechanical stimulus); test: Neuropathic pain model (SNL), mechanical pain threshold (von Frey); type: in vivo; conditions: for threshold of paw withdrawal response to mechanical stimulus: day 7 after SNL
[8] = test system: neuropathic pain in mice (thermal radiation stimulus); test: Neuropathic pain model (SNL), thermal pain threshold
Protocol: Neuropathic pain model was prepared by segmental spinal nerve ligation (SNL). The mice were anesthetized by intraperitoneal injection of 2% chloral hydrate (0.2 mL/10 g), after the loss of righting reflex, the mice were fixed in the prone position. The model was prepared by the method of Kim and Chung: a median skin incision with about 3-5 cm length in L4-S2 level of the mouse back was bluntly dissected, the muscles next to the vertebrae till the sixth lumbar protruding were separated, the L5/L6 joint protruding on the right side was exposed and excised, and L6 processes transverses was partially splitted so that the L4-L6 spinal nerves on the right side were exposed. L5 nerve was gently isolated and tightly ligated with 5-0 silk thread. Then the incision was sutured layer by layer, the skin was disinfected with povidone iodine, and the mice were continued to be raised. Postoperative gait deformity appeared in the animals, and in addition to mild valgus and toes were held together in surgery side hind limb, there was no other abnormal change.
When measuring paw withdrawal threshold (PWT) responding to thermal stimulus, the latency of paw withdrawal response was determined using pain measurement system of plantar thermal stimulus (UGO BASILE, Italy) which was commercially available. The mice were placed in a small plastic chamber located above a glass platform. The temperature of glass platform was controlled at 22° C. Animals' planta were stimulated with infrared radiator. To prevent tissue damage, the stimulated duration was limited within 30 seconds. If the stimulation time overran, the infrared radiator was automatically turned off. The pain threshold is represented by the time from starting stimulation to the foot removing from the glass platform. To ensure the consistency of the experiment, the sites of the animals receiving the thermal stimulus all located in the center of the hind planta.
When the drug was administrated by gavage, the objective compounds milled into a fine powder were suspended with water and sodium carboxymethyl cellulose, wherein the amount of sodium carboxymethyl cellulose was 1%. After the suspension, the objective compounds should be suspended homogeneously in the liquid, and no granular objects would settle or flocculently suspend in the liquid.
SNL surgery was conducted on the mice whose baseline of threshold for 50% paw withdrawal response to mechanical stimulus was determined. […] Latencies of thermal pain responses were measured 0.5, 1, 2, 4, 6, 8, 10, 12 and 24 hours after administration.

[9] = test system: inflammatory pain in mice (mechanical stimulus)
Protocol: as §1

[10] = test system: OGD-injuried neurons (primary cortical neurons); test: Cell viability assay: LDH release by OGD-injured primary cortical neurons; type: cell-based, mice; conditions: drug concentration 10^−6 M/L, OGD 2 hours, LDH after 8 hours
Protocol: After primary neurons were cultured for 9 days, the medium was replaced by DMEM high glucose medium containing 1% FBS, serum-starved overnight and then washed twice with OGD culture solution. This OGD culture solution contains DMEM medium, 1% FBS, 1% penicillin/streptomycin and B27, and contains no sugar. Then, the primary neurons were incubated with the test drugs for 30 minutes, OGD culture solution was added into an anaerobic tank and oxygen-deprived for 2 hours. The OGD culture solution was discarded, and replaced by oxygen-saturated DMEM medium containing 1% FBS, 1% penicillin/streptomycin and B27. After 8 hours the culture solution was collected to measure LDH level.
After the primary cortical neurons were treated with various processes, neuronal culture solution in six-well plates was pipetted to a 1.5 mL plastic centrifuge tube; cells were washed three times with PBS solution and each well was added PBS 1000 μl. The cells were freezed and thawed repeated for three times, centrifuged at 12000′ g for 5 minutes at 4° C., and the supernatant was removed for use. The activity of LDH enzyme was determined with 50 μl culture solution and 25 μl supernatant using lactate dehydrogenase kit.
Protective Effects of the Objective Compounds Against Primary Cortical Neuronal Injury Cultured In Vitro (See Table 2)

[11] = target: nNOS-PSD-95 coupling (Mus musculus, UniProt Q9Z0J4); conditions: FIG. 1
Protocol: Neonatal mice within 24 h were disinfected successively with benzalkonium bromide solution and 75% ethanol, followed by the disinfection to head skin with povidone-iodine. The head was fixed by clamping the neck skin by left hand, while the skull was cut open with an ophthalmic tweezer by right hand, exposing two cerebral hemispheres. The two pieces of cerebral cortex was placed in Petri dishes containing D-Hank's solution; the meninges was removed. The prepared cerebral cortex was added into a 5 ml small beaker, cut into small pieces of tissue less than 1 mm^3 using ophthalmic scissors and the pieces of tissue were transferred to a 50 ml conical flask. The well-incubated 0.125% Trypsin solution was added into a 20 ml conical flask and mixed thoroughly. After the digestion for 10 min in an incubator (37° C.), the suspension was gently pipetted with a pipette until the absence of tissue pieces. The cell suspension was transferred to a 200-mesh sieve to filter, and the enzyme reaction of the filtrate was terminated by DMEM/F12 (1:1) medium containing 10% FBS. The filtrate was centrifuged (2500 rp, 3 min) and the supernatant was removed. […]

[12] = 60 and 90 mg/kg groups, at peak time points of efficacy
[13] = gavage, SNL, mechanical stimulus
[14] = gavage 50 mg/kg, CFA, mechanical
[15] = tail vein 1.5 mg/kg 1 h after reperfusion, FIG. 8
[16] = intragastric 40 mg/kg, SNL, mechanical

Chain of nNOS-PSD-95 coupling (Q9Z0J4 whole entry): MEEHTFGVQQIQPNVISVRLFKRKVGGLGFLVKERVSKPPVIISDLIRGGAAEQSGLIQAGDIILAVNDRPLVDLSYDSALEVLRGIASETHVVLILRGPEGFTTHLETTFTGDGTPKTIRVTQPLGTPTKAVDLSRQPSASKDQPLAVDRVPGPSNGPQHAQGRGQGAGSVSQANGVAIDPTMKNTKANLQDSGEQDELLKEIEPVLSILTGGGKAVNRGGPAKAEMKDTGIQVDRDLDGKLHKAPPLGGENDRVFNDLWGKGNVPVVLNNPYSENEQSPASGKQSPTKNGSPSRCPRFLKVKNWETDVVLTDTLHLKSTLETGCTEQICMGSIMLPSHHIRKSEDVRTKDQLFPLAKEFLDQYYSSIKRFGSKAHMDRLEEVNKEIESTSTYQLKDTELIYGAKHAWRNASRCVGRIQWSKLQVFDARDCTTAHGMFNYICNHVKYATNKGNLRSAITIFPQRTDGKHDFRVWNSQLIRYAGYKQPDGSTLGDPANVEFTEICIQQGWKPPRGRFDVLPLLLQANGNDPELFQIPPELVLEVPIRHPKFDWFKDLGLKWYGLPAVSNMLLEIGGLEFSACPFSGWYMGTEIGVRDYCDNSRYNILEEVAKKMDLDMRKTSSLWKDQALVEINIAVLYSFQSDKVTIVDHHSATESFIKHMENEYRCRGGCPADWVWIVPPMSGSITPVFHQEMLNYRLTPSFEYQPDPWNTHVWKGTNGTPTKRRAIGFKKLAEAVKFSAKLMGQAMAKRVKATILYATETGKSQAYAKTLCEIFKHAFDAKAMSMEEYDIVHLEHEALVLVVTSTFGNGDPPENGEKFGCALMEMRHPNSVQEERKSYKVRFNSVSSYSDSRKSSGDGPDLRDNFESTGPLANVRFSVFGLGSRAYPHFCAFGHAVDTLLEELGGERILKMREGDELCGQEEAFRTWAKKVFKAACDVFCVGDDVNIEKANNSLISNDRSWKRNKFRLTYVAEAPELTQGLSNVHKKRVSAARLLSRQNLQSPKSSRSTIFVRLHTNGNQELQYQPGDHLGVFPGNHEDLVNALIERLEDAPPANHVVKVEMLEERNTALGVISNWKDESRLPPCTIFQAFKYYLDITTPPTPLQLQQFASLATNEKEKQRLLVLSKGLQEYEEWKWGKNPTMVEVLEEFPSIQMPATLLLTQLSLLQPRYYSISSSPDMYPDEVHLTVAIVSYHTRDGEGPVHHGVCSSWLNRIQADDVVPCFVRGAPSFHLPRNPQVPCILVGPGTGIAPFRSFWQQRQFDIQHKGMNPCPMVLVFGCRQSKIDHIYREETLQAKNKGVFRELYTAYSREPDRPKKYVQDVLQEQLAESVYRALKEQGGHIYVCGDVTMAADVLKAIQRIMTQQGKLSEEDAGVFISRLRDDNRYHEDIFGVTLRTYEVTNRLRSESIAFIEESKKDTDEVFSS

## O=C(O)c1ccc(NCc2cc(Cl)cc(Cl)c2O)cc1O [ZL006, 4-N-(2-hydroxy-3,5-dichlorobenzyl) aminosalicylic acid]
[1]
  NMDAR-mediated pathological NO release: reduce
[2]
  neuroprotective effect against glutamate-induced neuronal injury: significant neuroprotective effect
[3]
  animal neurological deficits: improve
  infarct volume: reduce
[4]
  learning and memory impairment, behavioral abnormalities and other side effects: does not cause

## CC1(C)C2CCC1(C)C(OC(=O)c1ccc(NCc3cc(Cl)cc(Cl)c3O)cc1O)C2 (stereo not shown) [ZL006-05, bornyl-2-hydroxy-4-(2-hydroxy-3,5-dichlorobenzyl) aminobenzoate]
[5]; 50 mg/kg, within 10 h after administration, FIG. 5C
  area under the curve relative to control group: approximately 2 times
[5]; gavage 50 mg/kg, CFA, thermal
  duration of significant analgesic effect of a single dose: about 10 hours
  time after administration at which significant efficacy was shown: 1 h
[5]; gavage 50 mg/kg, CFA, FIG. 5B
  latencies of paw withdraw response to thermal pain: significantly prolonged
[6]; tail vein 0.75, 1.5 and 3 mg/kg 1 h after reperfusion, FIG. 7
  neurological defect symptoms: significantly alleviated
[6]; tail vein 0.75, 1.5 and 3 mg/kg 1 h after reperfusion, dose-dependent, FIG. 7
  cerebral infarct area: significantly reduced
[7]; 90 mg/kg group, 12 h after administration, FIG. 2B
  AUC of threshold-time curve relative to control group: about six
[7]; [12]
  pain threshold relative to control group: about 20 times
[7]; gavage 10, 30, 60 and 90 mg/kg, dose dependent, FIG. 2A
  threshold of paw withdrawal response to mechanical stimulus: significantly increased
[7]; [13]
  dose that showed significant efficacy: 10 mg/kg
  efficacy duration of a single dose: about 8 hours
  peak time of efficacy after administration: 2 h
  time to show efficacy after administration: less than 0.5 h
[8]; 60 mg/kg group, 10 h after administration, FIG. 3B
  AUC of latency-time curve relative to control group: about two
[8]; [12]
  latency relative to control group: about 2.5 times
[8]; gavage 10, 30, 60 and 90 mg/kg, day 7 after SNL, dose dependent, FIG. 3A
  latency of paw withdrawal response to thermal pain: significantly increased
[8]; gavage, SNL, thermal pain
  dose that showed significant efficacy: 10 mg/kg
  efficacy duration of a single dose: about 8 hours
  time to show efficacy after administration: less than 0.5 h
[9]; 50 mg/kg, within 10 h after administration, FIG. 4C
  area under the curve of threshold relative to control group: approximately 4 times
[9]; [14]
  efficacy duration of a single dose: about 6 hours
  time after administration at which significant efficacy was shown: 1 h
[9]; gavage 50 mg/kg, CFA, FIG. 4B
  threshold of paw withdrawal response to mechanical stimulus: significantly increased
[10]
  Inhibition of LDH release (%): 62.4%
[11]; 10 μM, 50 μM glutamate and 30 μM glycine 30 minutes
  glutamate-induced coupling of nNOS and PSD-95: significantly inhibited
[11]; normal cultured neurons, no glutamate
  nNOS-PSD-95 coupling in normal cultured neurons: didn't affect

## CC(=O)Oc1cc(NCc2cc(Cl)cc(Cl)c2O)ccc1C(=O)OC1CC2CCC1(C)C2(C)C (stereo not shown) [ZL006-06, bornyl-2-acetyloxy-4-(2-hydroxy-3,5-dichlorobenzyl) aminobenzoate]
[6]; [15]
  neurological defect symptoms: significantly alleviated
  cerebral infarct area: significantly reduced
[7]; [16]
  efficacy duration of a single dose: about 6 hours
  time after administration at which significant efficacy was shown: 0.5 h
[7]; intragastric 40 mg/kg, FIG. 6
  threshold of paw withdrawal response to mechanical stimulus: significantly increased
[10]
  Inhibition of LDH release (%): 55.8%

## CC1(C)C2CCC1(C)C(OC(=O)c1cc(Cl)c(NCc3cc(Cl)cc(Cl)c3O)cc1O)C2 (stereo not shown) [ZL006-16, bornyl-2-hydroxy-4-(2-hydroxy-3,5-dichlorobenzyl)amino-5-chlorobenzoate]
[6]; [15]
  neurological defect symptoms: significantly alleviated
  cerebral infarct area: significantly reduced
[7]; [16]
  efficacy duration of a single dose: about 6 hours
  time after administration at which significant efficacy was shown: 0.5 h
[7]; intragastric 40 mg/kg, FIG. 6
  threshold of paw withdrawal response to mechanical stimulus: significantly increased
[10]; Mus musculus, Primary cortical neuron
  inhibition at 1 µM: 60.3%

## CC(=O)N(Cc1cc(Cl)cc(Cl)c1O)c1ccc(C(=O)OC2CC3CCC2(C)C3(C)C)c(O)c1 (stereo not shown) [ZL006-28, bornyl-2-hydroxy-4-[N-(2-hydroxy-3,5-dichlorobenzyl)-N-acetyl]aminobenzoate]
[6]; [15]
  neurological defect symptoms: significantly alleviated
  cerebral infarct area: significantly reduced
[7]; [16]
  efficacy duration of a single dose: about 6 hours
  time after administration at which significant efficacy was shown: 0.5 h
[7]; intragastric 40 mg/kg, FIG. 6
  threshold of paw withdrawal response to mechanical stimulus: significantly increased
[10]
  Inhibition of LDH release (%): 61.6%

## CC(=O)Oc1cc(N(C)Cc2cc(Cl)cc(Cl)c2O)ccc1C(=O)OC1CC2CCC1(C)C2(C)C (stereo not shown) [ZL006-30, bornyl-2-acetyloxy-4-[N-(2-hydroxy-3,5-dichlorobenzyl)-N-methyl]aminobenzoate]
[6]; [15]
  neurological defect symptoms: significantly alleviated
  cerebral infarct area: significantly reduced
[7]; [16]
  efficacy duration of a single dose: about 6 hours
  time after administration at which significant efficacy was shown: 0.5 h
[7]; intragastric 40 mg/kg, FIG. 6
  threshold of paw withdrawal response to mechanical stimulus: significantly increased
[10]
  Inhibition of LDH release (%): 65.9%

## CC(=O)Oc1cc(NCc2cc(Br)cc(Cl)c2O)ccc1C(=O)OC1CC2CCC1(C)C2(C)C (stereo not shown) [ZL006-43, bornyl-2-acetyloxy-4-(2-hydroxy-3-chloro-5-bromobenzyl) aminobenzoate]
[6]; [15]
  neurological defect symptoms: significantly alleviated
  cerebral infarct area: significantly reduced
[7]; [16]
  efficacy duration of a single dose: about 6 hours
  time after administration at which significant efficacy was shown: 0.5 h
[7]; intragastric 40 mg/kg, FIG. 6
  threshold of paw withdrawal response to mechanical stimulus: significantly increased
[10]
  Inhibition of LDH release (%): 68.9%

## COC(=O)c1ccc(N(Cc2cc(Br)cc(Cl)c2O)C(C)=O)cc1OC(C)=O [ZL006-82, methyl 2-acetyloxy-4-[N-(2-hydroxy-3-chloro-5-bromobenzyl)-N-acetyl]aminobenzoate]
[6]; [15]
  neurological defect symptoms: significantly alleviated
  cerebral infarct area: significantly reduced
[7]; [16]
  efficacy duration of a single dose: about 6 hours
  time after administration at which significant efficacy was shown: 0.5 h
[7]; intragastric 40 mg/kg, FIG. 6
  threshold of paw withdrawal response to mechanical stimulus: significantly increased
[10]
  Inhibition of LDH release (%): 61.2%
